The source of these data is patent publication US8791107B2, “N-substituted oxazinopteridines and oxazinopteridinones” (Takeda Pharmaceutical Company Limited, priority 2011, dated 2014).

The target in the assay is T1, PI3Kδ (Homo sapiens, UniProt O00329).
T1 construct: The protein is full length and co-expressed with untagged PIK3R1; GST; purchased Invitrogen PV5274
T1 sequence (O00329 whole entry): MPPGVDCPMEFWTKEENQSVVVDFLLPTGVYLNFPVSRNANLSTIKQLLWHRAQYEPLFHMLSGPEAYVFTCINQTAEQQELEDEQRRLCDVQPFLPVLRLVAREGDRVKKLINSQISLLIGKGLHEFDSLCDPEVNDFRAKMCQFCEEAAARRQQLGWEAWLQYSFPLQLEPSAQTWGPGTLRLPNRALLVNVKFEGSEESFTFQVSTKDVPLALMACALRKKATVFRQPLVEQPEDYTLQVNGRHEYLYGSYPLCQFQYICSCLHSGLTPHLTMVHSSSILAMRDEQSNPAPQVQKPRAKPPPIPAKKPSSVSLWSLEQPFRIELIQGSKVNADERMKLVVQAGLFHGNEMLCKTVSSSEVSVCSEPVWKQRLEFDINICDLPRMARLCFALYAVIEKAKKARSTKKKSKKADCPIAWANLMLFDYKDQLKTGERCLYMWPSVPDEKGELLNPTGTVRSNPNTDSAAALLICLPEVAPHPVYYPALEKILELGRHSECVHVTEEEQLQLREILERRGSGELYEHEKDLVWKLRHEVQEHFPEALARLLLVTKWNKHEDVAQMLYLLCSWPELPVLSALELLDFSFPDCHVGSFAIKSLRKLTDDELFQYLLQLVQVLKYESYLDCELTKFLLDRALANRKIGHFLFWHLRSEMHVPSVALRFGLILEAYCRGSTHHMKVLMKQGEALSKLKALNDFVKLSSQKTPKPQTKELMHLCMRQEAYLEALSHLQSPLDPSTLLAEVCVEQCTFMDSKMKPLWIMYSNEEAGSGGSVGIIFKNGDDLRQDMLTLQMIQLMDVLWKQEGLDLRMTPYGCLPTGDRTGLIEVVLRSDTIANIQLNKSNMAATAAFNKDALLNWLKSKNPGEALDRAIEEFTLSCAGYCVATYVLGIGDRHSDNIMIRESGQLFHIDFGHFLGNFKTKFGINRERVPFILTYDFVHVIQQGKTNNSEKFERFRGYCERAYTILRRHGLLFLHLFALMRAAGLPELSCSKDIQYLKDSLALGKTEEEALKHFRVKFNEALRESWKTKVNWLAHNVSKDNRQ
T1 sequence (P27986 whole entry partner): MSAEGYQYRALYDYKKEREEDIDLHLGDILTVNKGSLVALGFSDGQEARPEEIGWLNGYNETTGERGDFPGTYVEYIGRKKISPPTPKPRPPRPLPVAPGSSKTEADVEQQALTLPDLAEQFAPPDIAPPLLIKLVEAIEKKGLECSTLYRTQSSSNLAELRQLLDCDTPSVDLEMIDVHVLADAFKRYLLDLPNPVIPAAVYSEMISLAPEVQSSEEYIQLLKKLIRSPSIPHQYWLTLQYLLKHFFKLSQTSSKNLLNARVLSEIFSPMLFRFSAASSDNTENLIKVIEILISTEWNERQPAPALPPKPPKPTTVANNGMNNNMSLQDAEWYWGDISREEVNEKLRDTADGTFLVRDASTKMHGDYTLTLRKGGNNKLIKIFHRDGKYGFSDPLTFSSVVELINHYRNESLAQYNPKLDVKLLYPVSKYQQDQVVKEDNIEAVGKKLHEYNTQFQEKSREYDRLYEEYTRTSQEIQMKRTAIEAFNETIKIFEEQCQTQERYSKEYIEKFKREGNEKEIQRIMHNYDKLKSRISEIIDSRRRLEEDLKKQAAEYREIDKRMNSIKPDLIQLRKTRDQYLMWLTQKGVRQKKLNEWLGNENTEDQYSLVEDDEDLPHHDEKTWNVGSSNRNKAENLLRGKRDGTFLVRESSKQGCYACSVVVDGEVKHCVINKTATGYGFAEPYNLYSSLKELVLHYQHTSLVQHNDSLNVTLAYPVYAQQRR
The experiment in a line: PI3Kδ inhibition, modified PIK3CD Adapta TR-FRET assay. The assay is classed as biochemical. As to conditions: recombinant GST-tagged full length PIK3CD co-expressed with PIK3R1 (p85α); 2 μM ATP, 50 μM PIP2; read-out: PI3Kδ Inhibition (pIC50) (converted). The procedure, abridged:
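Full-length GST-PIK3CD co-expressed with p85α was run in 50 mM HEPES pH 7.5, 3 mM MgCl2, 1 mM EGTA, 100 mM NaCl, 0.03% CHAPS, 2 mM DTT, 1% DMSO, with 12-point compound titrations. Reactions at room temperature were started with solution containing 2 μM ATP and 50 μM PIP2. ADP was detected by Adapta TR-FRET (620 nm-ratioed).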
A general note: In TR-FRET formats the signal depends on donor and acceptor labels being close together.
On to `CNC(=O)Nc1ccc(-c2ncc3c(n2)N2CCOCC2C(=O)N3C2(c3ccc(Cl)cc3)CC2)cc1` (stereo not shown) [Example 99, 1-(4-(5-(1-(4-chlorophenyl)cyclopropyl)-6-oxo-5,6,6a,7,9,10-hexahydro-[1,4]oxazino[3,4-h]pteridin-2-yl)phenyl)-3-methylurea], for which the IC50 is 6.31 nM.

For `CS(=O)(=O)c1ccc(CN2C(=O)C3COCCN3c3nc(-c4ccc5cc[nH]c5c4)ncc32)cc1` (stereo not shown) [Example 100, 2-(1H-indol-6-yl)-5-(4-(methylsulfonyl)benzyl)-6a,7,9,10-tetrahydro-[1,4]oxazino[3,4-h]pteridin-6(5H)-one], the IC50 was 3980 nM. Regarding `CC(=O)Nc1cccc(-c2ncc3c(n2)N2CCOCC2C(=O)N3Cc2ccc(S(C)(=O)=O)cc2)c1` (stereo not shown) [Example 101, N-(3-(5-(4-(methylsulfonyl)benzyl)-6-oxo-5,6,6a,7,9,10-hexahydro-[1,4]oxazino[3,4-h]pteridin-2-yl)phenyl)acetamide], the IC50 is 316 nM.

For `CS(=O)(=O)Nc1ccc(-c2ncc3c(n2)N2CCOCC2C(=O)N3Cc2ccc(S(C)(=O)=O)cc2)cc1` (stereo not shown) [Example 102, N-(4-(5-(4-(methylsulfonyl)benzyl)-6-oxo-5,6,6a,7,9,10-hexahydro-[1,4]oxazino[3,4-h]pteridin-2-yl)phenyl)methanesulfonamide], the IC50 is 200 nM. For the molecule `CS(=O)(=O)c1ccc(CN2C(=O)C3COCCN3c3nc(-c4cccc(N)c4)ncc32)cc1` (stereo not shown) [Example 103, 2-(3-aminophenyl)-5-(4-(methylsulfonyl)benzyl)-6a,7,9,10-tetrahydro-[1,4]oxazino[3,4-h]pteridin-6(5H)-one], the IC50 was 126 nM.

As for `CC(=O)Nc1ccccc1-c1ncc2c(n1)N1CCOCC1C(=O)N2Cc1ccc(S(C)(=O)=O)cc1` (stereo not shown) [Example 104, N-(2-(5-(4-(methylsulfonyl)benzyl)-6-oxo-5,6,6a,7,9,10-hexahydro-[1,4]oxazino[3,4-h]pteridin-2-yl)phenyl)acetamide], the IC50 is 200 nM. In the case of `CCOC(=O)c1cncc(-c2ncc3c(n2)N2CCOCC2C(=O)N3Cc2ccc(S(C)(=O)=O)cc2)c1` (stereo not shown) [Example 105, ethyl 5-(5-(4-(methylsulfonyl)benzyl)-6-oxo-5,6,6a,7,9,10-hexahydro-[1,4]oxazino[3,4-h]pteridin-2-yl)nicotinate], the IC50 is 7940 nM. On to `CS(=O)(=O)c1ccc(CN2C(=O)C3COCCN3c3nc(-c4ccc(N)nc4)ncc32)cc1` (stereo not shown) [Example 106, 2-(6-aminopyridin-3-yl)-5-(4-(methylsulfonyl)benzyl)-6a,7,9,10-tetrahydro-[1,4]oxazino[3,4-h]pteridin-6(5H)-one], for which the IC50 is 7.94 nM. For the molecule `CS(=O)(=O)c1ccc(CN2C(=O)C3COCCN3c3nc(-c4ccc(C(N)=O)cc4)ncc32)cc1` (stereo not shown) [Example 107, 4-(5-(4-(methylsulfonyl)benzyl)-6-oxo-5,6,6a,7,9,10-hexahydro-[1,4]oxazino[3,4-h]pteridin-2-yl)benzamide], the IC50 was 398 nM.

Turning to `CS(=O)(=O)c1ccc(CN2C(=O)C3COCCN3c3nc(-c4cnc5[nH]ccc5c4)ncc32)cc1` (stereo not shown) [Example 108, 5-(4-(methylsulfonyl)benzyl)-2-(1H-pyrrolo[2,3-b]pyridin-5-yl)-6a,7,9,10-tetrahydro-[1,4]oxazino[3,4-h]pteridin-6(5H)-one], the IC50 is 31.6 nM. The value for `CNC(=O)c1ccc(-c2ncc3c(n2)N2CCOCC2C(=O)N3Cc2ccc(S(C)(=O)=O)cc2)cn1` (stereo not shown) [Example 109, N-methyl-5-(5-(4-(methylsulfonyl)benzyl)-6-oxo-5,6,6a,7,9,10-hexahydro-[1,4]oxazino[3,4-h]pteridin-2-yl)picolinamide] was 7940 nM. In the case of `CS(=O)(=O)c1ccc(CN2C(=O)C3COCCN3c3nc(-c4cccc(-c5cc[nH]n5)c4)ncc32)cc1` (stereo not shown) [Example 110, 2-(3-(1H-pyrazol-3-yl)phenyl)-5-(4-(methylsulfonyl)benzyl)-6a,7,9,10-tetrahydro-[1,4]oxazino[3,4-h]pteridin-6(5H)-one], the IC50 was 3160 nM. Take `CNS(=O)(=O)c1cccc(-c2ncc3c(n2)N2CCOCC2C(=O)N3Cc2ccc(S(C)(=O)=O)cc2)c1` (stereo not shown) [Example 111, N-methyl-3-(5-(4-(methylsulfonyl)benzyl)-6-oxo-5,6,6a,7,9,10-hexahydro-[1,4]oxazino[3,4-h]pteridin-2-yl)benzenesulfonamide]: the IC50 was 1580 nM. The result for `CC(=O)Nc1ccc(-c2ncc3c(n2)N2CCOCC2C(=O)N3Cc2ccc(S(C)(=O)=O)cc2)cc1` (stereo not shown) [Example 112, N-(4-(5-(4-(methylsulfonyl)benzyl)-6-oxo-5,6,6a,7,9,10-hexahydro-[1,4]oxazino[3,4-h]pteridin-2-yl)phenyl)acetamide] reads 31.6 nM; that for `CS(=O)(=O)c1ccc(CN2C(=O)C3COCCN3c3nc(-c4cccc(C(N)=O)c4)ncc32)cc1` (stereo not shown) [Example 113, 3-(5-(4-(methylsulfonyl)benzyl)-6-oxo-5,6,6a,7,9,10-hexahydro-[1,4]oxazino[3,4-h]pteridin-2-yl)benzamide], 501 nM; that for `CS(=O)(=O)c1ccc(CN2C(=O)C3COCCN3c3nc(-c4ccc5[nH]ncc5c4)ncc32)cc1` (stereo not shown) [Example 114, 2-(1H-indazol-5-yl)-5-(4-(methylsulfonyl)benzyl)-6a,7,9,10-tetrahydro-[1,4]oxazino[3,4-h]pteridin-6(5H)-one], 200 nM. Turning to `CS(=O)(=O)c1ccc(CN2C(=O)C3COCCN3c3nc(-c4cccc(S(N)(=O)=O)c4)ncc32)cc1` (stereo not shown) [Example 115, 3-(5-(4-(methylsulfonyl)benzyl)-6-oxo-5,6,6a,7,9,10-hexahydro-[1,4]oxazino[3,4-h]pteridin-2-yl)benzenesulfonamide], the IC50 was 631 nM. `CS(=O)(=O)c1ccc(CN2C(=O)C3COCCN3c3nc(-c4cccc(S(=O)(=O)NC5CC5)c4)ncc32)cc1` (stereo not shown) [Example 116, N-cyclopropyl-3-(5-(4-(methylsulfonyl)benzyl)-6-oxo-5,6,6a,7,9,10-hexahydro-[1,4]oxazino[3,4-h]pteridin-2-yl)benzenesulfonamide]: the IC50 is 1580 nM. In the case of `CS(=O)(=O)Nc1cccc(-c2ncc3c(n2)N2CCOCC2C(=O)N3Cc2ccc(S(C)(=O)=O)cc2)c1` (stereo not shown) [Example 117, N-(3-(5-(4-(methylsulfonyl)benzyl)-6-oxo-5,6,6a,7,9,10-hexahydro-[1,4]oxazino[3,4-h]pteridin-2-yl)phenyl)methanesulfonamide], the IC50 was 794 nM. `CS(=O)(=O)c1ccc(CN2C(=O)C3COCCN3c3nc(-c4ccc5[nH]c(=O)[nH]c5c4)ncc32)cc1` (stereo not shown) [Example 119, 5-(4-(methylsulfonyl)benzyl)-2-(2-oxo-2,3-dihydro-1H-benzo[d]imidazol-5-yl)-6a,7,9,10-tetrahydro-[1,4]oxazino[3,4-h]pteridin-6(5H)-one]: the IC50 is 2510 nM. As for `CS(=O)(=O)c1ccc(CN2C(=O)C3COCCN3c3nc(-c4cccc(NS(=O)(=O)C5CC5)c4)ncc32)cc1` (stereo not shown) [Example 120, N-(3-(5-(4-(methylsulfonyl)benzyl)-6-oxo-5,6,6a,7,9,10-hexahydro-[1,4]oxazino[3,4-h]pteridin-2-yl)phenyl)cyclopropanesulfonamide], the IC50 was 7940 nM. For the molecule `CS(=O)(=O)c1ccc(CN2C(=O)C3COCCN3c3nc(-c4cnc5cc[nH]c5c4)ncc32)cc1` (stereo not shown) [Example 121, 5-(4-(methylsulfonyl)benzyl)-2-(1H-pyrrolo[3,2-b]pyridin-6-yl)-6a,7,9,10-tetrahydro-[1,4]oxazino[3,4-h]pteridin-6(5H)-one], the IC50 is 31.6 nM.
